Experimental data from US8916557B2, “Substituted 4-Aryl-N-phenyl-1,3,5-triazin-2-amines” (Bayer Intellectual Property GmbH, priority 2011, dated 2014).
pIC50: −log10 of the molar value.

Tests used:
[1] = tested on: HeLa human cervical tumour cells; experiment: Proliferation assay (crystal violet), HeLa; type: cell-based; details: read-out: Inhibition of HeLa cell proliferation
[2] = biological target: T1, CDK9/CycT1 (Homo sapiens, UniProt P50750); experiment: CDK9/CycT1 kinase assay (TR-FRET); type: biochemical; details: Method 1, 10 μM ATP
T1 construct: Recombinant full-length His-tagged human CDK9 and CycT1; His; purchased Invitrogen PV4131; host or cells: insect cells
Text: 1. CDK9/CycT1 Kinase Assay:
CDK9/CycT1-inhibitory activity of compounds of the present invention was quantified employing the CDK9/CycT1 TR-FRET assay as described in the following paragraphs:
Recombinant full-length His-tagged human CDK9 and CycT1, expressed in insect cells and purified by Ni-NTA affinity chromatography, were purchased from Invitrogen (Cat. No PV4131). As substrate for the kinase reaction biotinylated peptide biotin-Ttds-[…] (C-terminus in amid form) was used which can be purchased e.g. form the company JERINI Peptide Technologies (Berlin, Germany). For the assay 50 nl of a 100fold concentrated solution of the test compound in DMSO was pipetted into a black low volume 384well microtiter plate (Greiner Bio-One, Frickenhausen, Germany), 2 μl of a solution of CDK9/CycT1 in aqueous assay buffer [50 mM Tris/HCl pH 8.0, 10 mM MgCl2, 1.0 mM dithiothreitol, 0.1 mM sodium ortho-vanadate, 0.01% (v/v) Nonidet-P40 (Sigma)] were added and the mixture was incubated for 15 min at 22° C. to allow pre-binding of the test compounds to the enzyme before the start of the kinase reaction. Then the kinase reaction was started by the addition of 3 μl of a solution of adenosine-tri-phosphate (ATP, 16.7 μM=>final conc. in the 5 μl assay volume is 10 μM) and substrate (1.67 μM=>final conc. in the 5 μl assay volume is 1 μM) in assay buffer and the resulting mixture was incubated for a reaction time of 25 min at 22° C. The concentration of CDK9/CycT1 was adjusted depending of the activity of the enzyme lot and was chosen appropriate to have the assay in the linear range, typical concentrations were in the range of 1 μg/ml. The reaction was stopped by the addition of 5 μl of a solution of TR-FRET detection reagents (0.2 μM streptavidine-XL665 [Cisbio Bioassays, Codolet, France] and 1 nM anti-RB(pSer807/pSer811)-antibody from BD Pharmingen [#558389] and 1.2 nM LANCE EU-W1024 labeled anti-mouse IgG antibody [Perkin-Elmer, product no. AD0077]) in an aqueous EDTA-solution (100 mM EDTA, 0.2% (w/v) bovine serum albumin in 100 mM HEPES/NaOH pH 7.0).
(§1) The resulting mixture was incubated 1 h at 22° C. to allow the formation of complex between the phosphorylated biotinylated peptide and the detection reagents. Subsequently the amount of phosphorylated substrate was evaluated by measurement of the resonance energy transfer from the Eu-chelate to the streptavidine-XL. Therefore, the fluorescence emissions at 620 nm and 665 nm after excitation at 350 nm was measured in a HTRF reader, e.g. a Rubystar (BMG Labtechnologies, Offenburg, Germany) or a Viewlux (Perkin-Elmer). The ratio of the emissions at 665 nm and at 622 nm was taken as the measure for the amount of phosphorylated substrate.

[3] = biological target: T2, CDK2/CycE (Homo sapiens, UniProt P24941); experiment: CDK2/CycE kinase assay (TR-FRET); type: biochemical; details: Method 2, 10 μM ATP
T2 construct: GST; purchased ProQinase GmbH (Freiburg, Germany); host or cells: insect cells (Sf9)
Text: 2. CDK2/CycE Kinase Assay:
CDK2/CycE-inhibitory activity of compounds of the present invention was quantified employing the CDK2/CycE TR-FRET assay as described in the following paragraphs:
Recombinant fusion proteins of GST and human CDK2 and of GST and human CycE, expressed in insect cells (Sf9) and purified by Glutathion-Sepharose affinity chromatography, were purchased from ProQinase GmbH (Freiburg, Germany). As substrate for the kinase reaction biotinylated peptide biotin-Ttds-[…] (C-terminus in amid form) was used which can be purchased e.g. form the company JERINI Peptide Technologies (Berlin, Germany).
For the assay 50 nl of a 100fold concentrated solution of the test compound in DMSO was pipetted into a black low volume 384well microtiter plate (Greiner Bio-One, Frickenhausen, Germany), 2 μl of a solution of CDK2/CycE in aqueous assay buffer [50 mM Tris/HCl pH 8.0, 10 mM MgCl2, 1.0 mM dithiothreitol, 0.1 mM sodium ortho-vanadate, 0.01% (v/v) Nonidet-P40 (Sigma)] were added and the mixture was incubated for […] at 22° C. to allow pre-binding of the test compounds to the enzyme before the start of the kinase reaction. Then the kinase reaction was started by the addition of 3 μl of a solution of adenosine-tri-phosphate (ATP, 16.7 μM=>final conc. in the 5 it assay volume is 10 μM) and substrate (1.25 μM=>final conc. in the 5 it assay volume is 0.75 μM) in assay buffer and the resulting mixture was incubated for a reaction time of […] at 22° C. The concentration of CDK2/CycE was adjusted depending of the activity of the enzyme lot and was chosen appropriate to have the assay in the linear range, typical concentrations were in the range of 130 ng/ml. The reaction was stopped by the addition of 5 it of a solution of TR-FRET detection reagents (0.2 μM streptavidine-XL665 [Cisbio Bioassays, Codolet, France] and 1 nM anti-RB(pSer807/pSer811)-antibody from BD Pharmingen [#558389] and 1.2 nM LANCE EU-W1024 labeled anti-mouse IgG antibody [Perkin-Elmer, product no. AD0077]) in an aqueous EDTA-solution (100 mM EDTA, 0.2% (w/v) bovine serum albumin in 100 mM HEPES/NaOH pH 7.0).
as §1, with “TR-FRET” for “HTRF”

T1 sequence (P50750 whole entry): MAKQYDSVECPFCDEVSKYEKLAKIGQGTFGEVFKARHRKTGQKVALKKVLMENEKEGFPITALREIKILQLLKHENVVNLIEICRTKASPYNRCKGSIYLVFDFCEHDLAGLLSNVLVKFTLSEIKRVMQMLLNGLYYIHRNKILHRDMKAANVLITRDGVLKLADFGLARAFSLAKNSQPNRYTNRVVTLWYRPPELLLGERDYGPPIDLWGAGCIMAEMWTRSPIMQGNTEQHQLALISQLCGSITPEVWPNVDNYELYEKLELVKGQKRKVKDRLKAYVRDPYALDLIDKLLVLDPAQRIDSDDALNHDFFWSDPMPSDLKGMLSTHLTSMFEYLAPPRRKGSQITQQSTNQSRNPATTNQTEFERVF
T1 sequence (O60563 whole entry partner): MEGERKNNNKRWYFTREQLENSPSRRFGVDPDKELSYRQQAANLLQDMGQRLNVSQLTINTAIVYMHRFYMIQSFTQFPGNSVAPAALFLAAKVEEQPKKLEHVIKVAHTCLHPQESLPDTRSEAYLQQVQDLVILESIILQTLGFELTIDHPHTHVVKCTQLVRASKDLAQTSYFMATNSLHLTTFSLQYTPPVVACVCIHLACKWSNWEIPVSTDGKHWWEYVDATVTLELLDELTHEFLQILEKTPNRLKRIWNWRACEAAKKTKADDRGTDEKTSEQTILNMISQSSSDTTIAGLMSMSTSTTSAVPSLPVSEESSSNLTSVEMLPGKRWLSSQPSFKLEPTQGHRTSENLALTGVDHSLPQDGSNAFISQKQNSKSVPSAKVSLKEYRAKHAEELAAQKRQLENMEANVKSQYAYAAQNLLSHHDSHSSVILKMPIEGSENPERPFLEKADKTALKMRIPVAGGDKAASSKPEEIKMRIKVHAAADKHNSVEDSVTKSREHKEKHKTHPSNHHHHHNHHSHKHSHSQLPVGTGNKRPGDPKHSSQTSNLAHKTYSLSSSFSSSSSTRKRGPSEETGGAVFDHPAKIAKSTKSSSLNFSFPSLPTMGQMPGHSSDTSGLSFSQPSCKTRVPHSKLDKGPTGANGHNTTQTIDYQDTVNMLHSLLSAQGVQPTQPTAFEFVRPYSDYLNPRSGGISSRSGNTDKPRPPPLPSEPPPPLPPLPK

| SMILES | pIC50 [1] | pIC50 [2] | pIC50 [3] |
| --- | --- | --- | --- |
| CC(Oc1cc(F)ccc1-c1ncnc(Nc2cccc(CS(C)(=O)=O)c2)n1)c1ccccc1 (racemic) [Example 68, rac-4-[4-Fluoro-2-(1-phenylethoxy)phenyl]-N-{3-[(methylsulfonyl)methyl]phenyl}-1,3,5-triazin-2-amine] | 5.85 | 7.80 | 5.96 |
| COc1cc(F)ccc1-c1ncnc(Nc2cccc(CS(=O)(=O)CCO)c2)n1 [Example 14, 2-[(3-{[4-(4-Fluoro-2-methoxyphenyl)-1,3,5-triazin-2-yl]amino}benzyl)sulfonyl]ethanol] | 6.22 | 7.92 | 6.21 |
| [2H]C([2H])([2H])Oc1ccccc1-c1ncnc(Nc2cccc(CS(C)(=O)=O)c2)n1 [Example 22, 4-{2-[(^2H3)methyloxy]phenyl}-N-{3-[(methylsulfonyl)methyl]phenyl}-1,3,5-triazin-2-amine] | 5.85 | 7.64 | 5.60 |
| COCCS(=O)(=O)Cc1cccc(Nc2ncnc(-c3ccc(F)cc3OC)n2)c1 [Example 23, 4-(4-Fluoro-2-methoxyphenyl)-N-(3-{[(2-methoxyethyl)sulfonyl]methyl}phenyl)-1,3,5-triazin-2-amine] | 6.03 | 7.92 | 5.89 |
| COc1cc(F)ccc1-c1ncnc(Nc2cccc(CS(=O)(=O)C(C)C)c2)n1 [Example 24, 4-(4-Fluoro-2-methoxyphenyl)-N-{3-[(propan-2-ylsulfonyl)methyl]phenyl}-1,3,5-triazin-2-amine] | 6.00 | 8.15 | 6.17 |
| CC(C)S(=O)(=O)Cc1cccc(Nc2ncnc(-c3ccccc3OCc3cccc(Cl)c3)n2)c1 [Example 34, 4-{2-[(3-Chlorobenzyl)oxy]phenyl}-N-{3-[(propan-2-ylsulfonyl)methyl]phenyl}-1,3,5-triazin-2-amine] | 5.92 | 8.00 | 6.10 |
| COc1cc(F)ccc1-c1ncnc(Nc2cccc(CS(=O)(=O)C3CCCC3)c2)n1 [Example 36, N-{3-[(Cyclopentylsulfonyl)methyl]phenyl}-4-(4-fluoro-2-methoxyphenyl)-1,3,5-triazin-2-amine] | 6.00 | 7.77 | 6.06 |
| CC(C)S(=O)(=O)Cc1cccc(Nc2ncnc(-c3ccccc3OCc3ccc(F)cc3)n2)c1 [Example 37, 4-{2-[(4-Fluorobenzyl)oxy]phenyl}-N-{3-[(prop-2-ylsulfonyl)methyl]phenyl}-1,3,5-triazin-2-amine] | 5.96 | 8.05 | 5.60 |
| COc1cc(F)ccc1-c1ncnc(Nc2cc(Cl)cc(CS(C)(=O)=O)c2)n1 [Example 39, N-{5-Chloro-3-[(methylsulfonyl)methyl]phenyl}-4-(4-fluoro-2-methoxyphenyl)-1,3,5-triazin-2-amine] | 6.55 | 8.05 | 6.72 |
| CS(=O)(=O)Cc1cccc(Nc2ncnc(-c3ccc(F)cc3OCc3cc(F)cc(C(F)(F)F)c3)n2)c1 [Example 78, 4-(4-Fluoro-2-{[3-fluoro-5-(trifluoromethyl)benzyl]oxy}phenyl)-N-{3-[(methylsulfonyl)-methyl]-phenyl}-1,3,5-triazin-2-amine] | 6.02 | 8.40 |  |

Further molecules by rising pIC50 [2], results first:

| pIC50 [1] | pIC50 [2] | pIC50 [3] | SMILES |
| --- | --- | --- | --- |
| 5.82 | 7.43 | 5.33 | COc1cnccc1-c1ncnc(Nc2cccc(CS(C)(=O)=O)c2)n1 [Example 8, 4-(3-Methoxypyridin-4-yl)-N-{3-[(methylsulfonyl)methyl]phenyl}-1,3,5-triazin-2-amine] |
| 6.05 | 7.54 | 6.00 | CS(=O)(=O)Cc1cccc(Nc2ncnc(-c3ccc(F)cc3OC3CC3)n2)c1 [Example 41, 4-[2-(Cyclopropyloxy)-4-fluorophenyl]-N-{3-[(methylsulfonyl)methyl]phenyl}-1,3,5-triazin-2-amine] |
| 6.02 | 7.82 | 6.15 | CS(=O)(=O)Cc1cccc(Nc2ncnc(-c3cccc4c3OCC4)n2)c1 [Example 13, 4-(2,3-Dihydro-1-benzofuran-7-yl)-N-{3-[(methylsulfonyl)methyl]phenyl}-1,3,5-triazin-2-amine] |
| 6.12 | 8.15 | 5.96 | CS(=O)(=O)Cc1cccc(Nc2ncnc(-c3ccccc3OCc3ccc(F)cc3)n2)c1 [Example 25, 4-{2-[(4-Fluorobenzyl)oxy]phenyl}-N-{3-[(methylsulfonyl)methyl]phenyl}-1,3,5-triazin-2-amine] |
| 6.08 | 8.22 | 6.49 | CC(C)S(=O)(=O)Cc1cccc(Nc2ncnc(-c3cc(F)ccc3OCc3cccc(F)c3)n2)c1 [Example 38, 4-{5-Fluoro-2-[(3-fluorobenzyl)oxy]phenyl}-N-{3-[(prop-2-ylsulfonyl)methyl]phenyl}-1,3,5-triazin-2-amine] |
| 5.96 | 8.22 |  | CS(=O)(=O)Cc1cccc(Nc2ncnc(-c3ccc(F)cc3OCc3cc(F)c(F)cc3F)n2)c1 [Example 75, 4-{4-Fluoro-2-[(2,4,5-trifluorobenzyl)oxy]phenyl}-N-{3-[(methylsulfonyl)-methyl]phenyl}-1,3,5-triazin-2-amine] |
| 6.09 | 8.30 |  | CS(=O)(=O)Cc1cccc(Nc2ncnc(-c3ccc(F)cc3OCc3cc(F)ccc3F)n2)c1 [Example 81, 4-{2-[(2,5-Difluorobenzyl)-oxy]-4-fluorophenyl}-N-{3-[(methylsulfonyl)methyl]phenyl}-1,3,5-triazin-2-amine] |
|  | 9.00 | 7.12 | CS(=O)(=O)Cc1cccc(Nc2ncnc(-c3ccc(F)cc3OCc3ccnc(F)c3)n2)c1 [Example 82, 4-{4-Fluoro-2-[(2-fluoropyridin-4-yl)methoxy]-phenyl}-N-{3-[(methylsulfonyl)-methyl]-phenyl}-1,3,5-triazin-2-amine] |
